Among the data in US6946465B2, “Immunosuppressive effects of pteridine derivatives” (4 AZA Bioscience NV, priority 1999, dated 2005) are IC50 values, retold here.

By IC50 is commonly meant the concentration that gives 50% inhibition.

Holding throughout (type): cell-based, human
The test system of assay [1] is highly purified T cells stimulated by immobilized anti-CD3 mAb. As to the kind of experiment: CD3 assay: T-cell proliferation stimulated by anti-CD3 mAb + PMA (BrdU). The following applies: Table 1; anti-CD3 mAb + PMA 0.5 ng/ml, 48 h; read-out: CD 3 IC50. An excerpt:
(§1) Various models may be used for testing an immunosuppressive effect. In vivo, for example, different transplantation models are available. They are strongly influenced by different immunogenicities, depending on the donor and recipient species used and depending on the nature of the transplanted organ. The survival time of transplanted organs can thus be used to measure the suppression of the immune response. In vitro, the most used models are lymphocyte activation tests. Usually activation is measured via lymphocyte proliferation. Inhibition of proliferation thus always means immunosuppression under the experimental conditions applied. There exist different stimuli for lymphocyte activation: • a) co-culture of lymphocytes of […] (mixed lymphocyte reaction, hereinafter referred as MLR) in a so-called mixed lymphocyte culture test: lymphocytes expressing different minor and major antigens of the HLA-DR type (=alloantigens) activate each other non-specifically. • b) a CD3 assay here there is an activation of the T-lymphocytes via an exogenously added antibody (OKT3).
(§2) All reagents were dissolved in 0.5 ml dimethylsulfoxide (hereinafter referred as DMSO) and further diluted in culture medium before use for the following in vitro experiments. The commercially available culture medium consisted of RPMI-1640+10% foetal calf serum (FCS).
(§3) T cells were purified by removing non-T cells. Briefly, monocytes were removed by cold agglutination. The resulting lymphoid cells were further purified by a cell enrichment immunocolumn [Cellect Human T commercially available from Biotex, Edmonton, Alberta, Canada)] by a process of negative selection.
(§4) Highly purified T cells (10^6/ml) were stimulated by immobilized anti-CD3 or anti-CD28 monoclonal antibodies (hereinafter referred as mAb) in the presence of PMA. Anti-CD3 mAb (available from CLB, Amsterdam, Netherlands) were fixed on the 96-microwell plates by incubating the wells with 50 μl of mAb solution (1/800 dilution in culture medium). For anti-CD28 mAb (available from CLB, Amsterdam, Netherlands) 50 μl (1/650 dilution in culture medium) was added directly to the wells. Further, a 20 μl phorbol myristate acetate (hereinafter referred as PMA (commercially available from Sigma, St. Louis, Mo., USA) solution (final concentration: 0.5 ng/ml) was added. Subsequently, 20 μl of a compound described in some of the previous examples were added by serial dilution in triplicate wells. Finally 100 μl of the T-cell suspension (10^6/ml) was added. After 48-hour incubation at 37° C. in 5% CO2 20 μl of a bromo-deuridine (hereinafter referred as BrdU) 100 μM solution (commercially available as Cell Proliferation Elisa from Boehringer-Mannheim Belgium) was added to each well. After a further overnight incubation, T-cell proliferation was measured using a colorimetric immunoassay for qualification of cell proliferation based on the incorporation of BrdU during DNA synthesis. Optical density (hereinafter referred as OD) was measured by a Behring EL311 plate reader at 450 nm (reference wavelength: 690 nm). Inhibition of proliferation by a compound (drug) described in some of the previous examples was counted using the formula: [formula]

For assay [2], the system named is highly purified T cells stimulated by anti-CD28 mAb. In words: CD28 assay: T-cell proliferation stimulated by anti-CD28 mAb + PMA (BrdU). The settings on record: Table 1; anti-CD28 mAb + PMA 0.5 ng/ml, 48 h.
From the text: as §1, §2, §3, §4

Assay [3] concerns peripheral blood mononuclear cells (PBMC) with allogeneic PBMC or RPMI1788 stimulator cells. In words: Mixed lymphocyte reaction (MLR) test, [3H]-thymidine incorporation. The settings on record: Table 1; 5 days incubation + 16 h thymidine.
From the text: as §1, §2
Peripheral blood mononuclear cells (hereinafter referred as PBMC) were isolated from heparinized peripheral blood by density gradient centrifugation over Lymphoprep (Nycomed, Maorstua, Norway). Allogeneic PBMC or Eppstein-Barr Virus-transformed human B cells [commercially available under the trade name RPM11788 (ATCC name CCL156)] which strongly express B7-1 and B7-2 antigens were used as stimulator cells after irradiation with 30 Gy. MLR was performed in triplicate wells. After 5 days incubation at 37° C., 1 μCi [^3 H]-thymidine was added to each cup. After a further 16 hours incubation, cells were harvested and counted in a β-counter. Inhibition of proliferation by a compound (drug) described in some of the previous examples was counted using the formula: [formula] wherein cpm is the thymidine count per minute. Assays for CD3 and CD 28

For `Cn1c(=O)c2nc(/C=C/c3cccnc3)cnc2n(C)c1=O` [Example 6, 1,3-dimethyl-6-[(E)-2-(pyrid-3-yl)vinyl]lumazine], the IC50 turned out to be 110 µM in assay [1], 110 µM in assay [2] and 30 µM in assay [3].

With `Cn1c(=O)c2nc(/C=C/c3ccncc3)cnc2n(C)c1=O` [Example 7, 1,3-dimethyl-6-[(E)-2-(pyrid-4-yl)vinyl]lumazine], the IC50 in assay [1] came out at 150 µM; in assay [2] it was 150 µM; in assay [3], 20 µM.

As for `Cn1c(=O)c2nc(C(Br)C(Br)c3ccccc3)cnc2n(C)c1=O` (stereo not drawn) [Example 8, 6-(1,2-dibromo-2-phenylethyl)-1,3-dimethyllumazine], the IC50 in assay [2] was 1.55 µM; in assay [3], 15 µM.

As to `Cn1c(=O)c2nc(/C=C/C=Cc3ccccc3)cnc2n(C)c1=O` [Example 9, 1,3-dimethyl-6-[(E)-4-(phenyl)butadienyl]lumazine], the 50% inhibitory concentration (IC50) in assay [1] is 140 µM; in assay [2] it was 140 µM; in assay [3] it was 75 µM.

As for `COC(=O)C(Br)C(Br)c1cnc2c(n1)c(=O)n(C)c(=O)n2C` (stereo not drawn) [Example 11, 6-(1,2-dibromo-2-(methoxycarbonyl)ethyl)-1,3-dimethyllumazine], the half-inhibitory concentration (IC50) in assay [1] was 0.55 µM; in assay [2], 0.08 µM; in assay [3] it was 12 µM.

As to `COC(=O)C(Br)=Cc1cnc2c(n1)c(=O)n(C)c(=O)n2C` [Example 12, 6-(2-bromo-2-methoxycarbonyl-ethenyl)-1,3-dimethyllumazine], the values for the IC50 in assay [1] and in assay [2] were 0.58 µM and 0.08 µM, respectively.

On to `COC(=O)C=C(OC)c1cnc2c(n1)c(=O)n(C)c(=O)n2C` [Example 16], for which the values for the IC50 in assay [1], in assay [2] and in assay [3] were 80 µM, 80 µM and 70 µM, respectively.

Consider `Cn1c(=O)c2nc(C(O)C[N+](=O)[O-])cnc2n(C)c1=O` (stereo not drawn) [Example 17, 6-[(1-hydroxy-2-nitro)ethyl]-1,3-dimethyllumazine], for which the half-inhibitory concentration (IC50) is 25 µM in assay [1], 15 µM in assay [2] and 90 µM in assay [3].

In the case of `Cn1c(=O)c2nc(C=C[N+](=O)[O-])cnc2n(C)c1=O` [Example 18, 1,3-dimethyl-6-[(2-nitro)ethenyl]lumazine], the concentration for half-maximal inhibition (IC50) came out at 0.8 µM in assay [1], 0.4 µM in assay [2] and 12 µM in assay [3].

`CCSC(C[N+](=O)[O-])c1cnc2c(n1)c(=O)n(C)c(=O)n2C` (stereo not drawn) [Example 19, 6-[(1-ethylthio-2-nitro)ethyl]-1,3-dimethyl-lumazine]: the IC50 in assay [1] was determined as 0.35 µM; in assay [2], 0.09 µM; in assay [3], 4.5 µM.

As for `Cn1c(=O)c2ncc(/C=C/c3cccnc3)nc2n(C)c1=O` [Example 21, 1,3-dimethyl-7-[(E)-2-(pyrid-3-yl)vinyl]lumazine], the IC50 was found to be 100 µM in assay [1], 60 µM in assay [2] and 20 µM in assay [3].

Regarding `Cn1c(=O)c2ncc(/C=C/c3ccncc3)nc2n(C)c1=O` [Example 22, 1,3-dimethyl-7-[(E)-2-(pyrid-4-yl)vinyl]lumazine], the half-inhibitory concentration (IC50) in assay [1] worked out at 125 µM; in assay [2] it was 100 µM; in assay [3], 75 µM.

`Cn1c(=O)c2ncc(/C=C/C=Cc3ccccc3)nc2n(C)c1=O` [Example 23, 1,3-dimethyl-7-[(E)-4-(phenyl)butadienyl]-lumazine]: the concentration for half-maximal inhibition (IC50) in assay [1] was found to be 110 µM; in assay [2] it was 80 µM; in assay [3] it was 30 µM.

As for `COC(=O)/C=C/c1cnc2c(=O)n(C)c(=O)n(C)c2n1` [Example 24, 7-[(E)-2-methoxycarbonylethenyl]-1,3-dimethyl-lumazine], the IC50 in assay [1] was found to be 12 µM; in assay [2], 12 µM; in assay [3] it was 15 µM.

Regarding `COC(=O)C(Br)C(Br)c1cnc2c(=O)n(C)c(=O)n(C)c2n1` (stereo not drawn) [Example 25, 7-[1,2-dibromo-2-(methoxycarbonyl)ethyl)-1,3-dimethyllumazine], in assay [3], the 50% inhibitory concentration (IC50) was 1.9 µM.

On to `Cn1c(=O)c2ncc(/C=C/c3ccccc3)nc2n(C)c1=O` [Example 26, 1,3-dimethyl-7-(E)-styryllumazine], for which the IC50 is 115 µM in assay [1], 115 µM in assay [2] and 50 µM in assay [3].

For the compound `Cn1c(=O)c2ncc(C(Br)C(Br)c3ccccc3)nc2n(C)c1=O` (stereo not drawn) [Example 27, 7-(1,2-dibromo-2-phenylethyl)-1,3-dimethyllumazine], the IC50 was 0.1 µM in assay [2] and 12 µM in assay [3].

For `Cn1c(=O)c2ncc(C(Br)=Cc3ccccc3)nc2n(C)c1=O` [Example 28, 7-(1-bromo-2-phenyl)ethenyl-1,3-dimethyllumazine], the IC50 in assay [1] came to 2.4 µM; in assay [2], 2.7 µM; in assay [3], 2.7 µM.

Regarding `Cn1c(=O)c2ncc(Cl)nc2n(C)c1=O` [Example 31, 7-chloro-1,3-dimethyllumazine], the concentration for half-maximal inhibition (IC50) was 0.1 µM in assay [2] and 12 µM in assay [3].

For the compound `Cn1c(=O)c2nc(-c3ccccc3)c(S)nc2n(C)c1=O` [Example 32, 1,3-dimethyl-6-phenyl-7-mercaptolumazine], the half-maximal inhibitory concentration (IC50) in assay [1], in assay [2] and in assay [3] was 25 µM in each case.

For the compound `CCOc1nc2c(nc1-c1ccccc1)c(=O)n(C)c(=O)n2C` [Example 33, 7-ethoxy-1,3-dimethyl-6-phenyllumazine], the 50% inhibitory concentration (IC50) in assay [1] turned out to be 100 µM; in assay [2], 70 µM; in assay [3] it was 40 µM.

Turning to `Cn1c(=O)c2nc(-c3ccccc3)c(Cl)nc2n(C)c1=O` [Example 34, 7-chloro-1,3-dimethyl-6-phenyllumazine], the figures for the half-inhibitory concentration (IC50) in assay [1], in assay [2] and in assay [3] were 0.08 µM, 0.07 µM and 3.75 µM, respectively.

Take `COc1nc2c(nc1C=Cc1ccccc1)c(=O)n(C)c(=O)n2C` [Example 40, 7-methoxy-1,3-dimethyl-6-styryllumazine]: the IC50 is > 200 µM in assay [1], > 200 µM in assay [2] and 20 µM in assay [3].

As to `Cn1c(=O)[nH]c(=O)c2nc(-c3ccccc3)c(-c3ccccc3)nc21` [Example 41, 1-methyl-6,7-diphenyllumazine], the values for the concentration for half-maximal inhibition (IC50) in assay [1], in assay [2] and in assay [3] were 25 µM, 25 µM and 35 µM, respectively.

`Cn1c(=O)[nH]c2nc(O)c(-c3ccccc3)nc2c1=O` [Example 42, 7-hydroxy-3-methyl-6-phenyllumazine]: the 50% inhibitory concentration (IC50) is 20 µM in assay [1], 25 µM in assay [2] and 55 µM in assay [3].

As for `CCCn1c(=O)c2nc(-c3ccccc3)c(O)nc2n(CCC)c1=O` [Example 44, 7-hydroxy-6-phenyl-1,3-di-n-propyllumazine], the concentration for half-maximal inhibition (IC50) in assay [1] is 80 µM; in assay [2] it was 70 µM; in assay [3], 120 µM.

Take `CCOC(=O)c1nc2c(=O)n(C)c(=O)n(C)c2nc1Cl` [Example 48, 6-ethylcarboxylate-7-chloro-1,3-dimethyl-lumazine]: the half-maximal inhibitory concentration (IC50) in assay [3] came to 12.5 µM.

With `Cn1c(=O)c2nc(C=Cc3ccc(OC(F)(F)F)cc3)cnc2n(C)c1=O` [Example 80, 6-[2-(p-trifluoromethoxyphenyl)ethenyl]-1,3-dimethyllumazine], the half-maximal inhibitory concentration (IC50) in assay [3] worked out at 9 µM.

In the case of `CCOC(=O)CSc1nc2c(nc1C#N)c(=O)n(C)c(=O)n2C` [Example 81, 6-cyano-7-ethylmercaptoacetate-1,3-dimethyllumazine], the half-maximal inhibitory concentration (IC50) in assay [3] stood at 12.2 µM.
